pIC50: −log10 of the molar value. Where a name gives a salt, the structure may show the parent alone.
system: not given; test: not given; details: not given

Compound | melting point
CC(C)=CCn1c(N2CC[C@@H]3CN(C)C[C@@H]32)nc2c1c(=O)n(CC(=O)c1ccccc1)c(=O)n2C (relative stereo) [Example 2, 3-Methyl-7-(3-methylbut-2-enyl)-8-(cis-5-methylhexahydropyrrolo[3,4-b]pyrrole-1-yl)-1-(2-oxo-2-phenylethyl)-3,7-dihydropurine-2,6-dione] | 73.5 °C

molecular target: T1, DPP-IV from porcine kidney (Sus scrofa, UniProt P22411); test: Measurement of the DPP-IV activity (fluorimetric H-Ala-Pro-AFC conversion); type: biochemical; details: DPP-IV 1 mU/ml, H-Ala-Pro-AFC 15 μM, Tris/HCl 40 mM pH 7.4, room temperature
T1 construct: DPP-IV from porcine kidney (Sigma, Munich); purchased Sigma, Munich; host or cells: porcine kidney (tissue-derived enzyme)
T1 sequence (P22411 whole entry): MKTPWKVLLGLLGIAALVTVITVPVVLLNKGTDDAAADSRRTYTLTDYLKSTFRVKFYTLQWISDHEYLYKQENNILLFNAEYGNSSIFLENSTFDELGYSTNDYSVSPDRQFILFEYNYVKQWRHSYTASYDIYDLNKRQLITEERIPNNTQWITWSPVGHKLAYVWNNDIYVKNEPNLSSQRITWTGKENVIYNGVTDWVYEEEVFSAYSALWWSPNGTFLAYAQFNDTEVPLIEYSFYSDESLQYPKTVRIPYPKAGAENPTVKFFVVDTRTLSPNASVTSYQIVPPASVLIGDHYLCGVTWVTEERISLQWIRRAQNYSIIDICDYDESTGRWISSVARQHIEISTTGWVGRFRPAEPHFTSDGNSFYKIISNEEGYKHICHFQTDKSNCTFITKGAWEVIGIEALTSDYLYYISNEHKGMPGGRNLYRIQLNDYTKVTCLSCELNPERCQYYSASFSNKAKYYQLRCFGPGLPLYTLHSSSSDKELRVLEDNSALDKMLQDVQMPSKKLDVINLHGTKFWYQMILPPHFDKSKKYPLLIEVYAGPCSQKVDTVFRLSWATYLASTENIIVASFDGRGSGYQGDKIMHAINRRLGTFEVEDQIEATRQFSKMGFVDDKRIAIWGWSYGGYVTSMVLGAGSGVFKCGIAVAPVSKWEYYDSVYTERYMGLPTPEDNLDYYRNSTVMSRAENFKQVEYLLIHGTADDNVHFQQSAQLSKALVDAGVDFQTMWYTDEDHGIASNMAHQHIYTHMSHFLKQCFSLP
Procedure: The reaction was carried out at room temperature for various times (typically 10 min) and stopped at the end of the reaction by adding 20 μl of ZnCl2(1 M). […] When inhibitors were added, the added buffer volume was adapted so that a total volume of 200 μl was maintained for the assay mixture.

Compound | pIC50
Cn1c(=O)n(CC(=O)c2ccccc2)c(=O)c2c1nc(N1CCC3CNCC31)n2Cc1ccccc1 (stereo not shown) [Example 5, 7-Benzyl-8-(hexahydropyrrolo[3,4-b]pyrrol-1-yl)-3-methyl-1-(2-oxo-2-phenylethyl)-3,7-dihydropurine-2,6-dione hydrochloride] | 8.14
CC(C)=CCn1c(N2CCC3CNCC32)nc2c1c(=O)n(CC(O)c1ccccc1)c(=O)n2C (stereo not shown) [Example 14, 8-(Hexahydropyrrolo[3,4-b]pyrrol-1-yl)-1-(2-hydroxy-2-phenylethyl)-3-methyl-7-(3-methyl-but-2-enyl)-3,7-dihydropurine-2,6-dione hydrochloride] | 7.92
CCn1c(=O)n(CC(=O)c2ccccc2)c(=O)c2c1nc(N1CCC3CNCC31)n2CC=C(C)C (stereo not shown) [Example 15, 3-Ethyl-8-(hexahydropyrrolo[3,4-b]pyrrol-1-yl)-7-(3-methylbut-2-enyl)-1-(2-oxo-2-phenyl-ethyl)-3,7-dihydropurine-2,6-dione hydrochloride] | 8.30
CC(C)=CCn1c(N2CCC3CNCC32)nc2c1c(=O)n(Cc1nc3cc(F)ccc3s1)c(=O)n2C (stereo not shown) [Example 16, 1-(5-Fluorobenzothiazol-2-ylmethyl)-8-(hexahydropyrrolo[3,4-b]pyrrol 1-yl)-3-methyl-7-(3-methylbut-2-enyl)-3,7-dihydropurine-2,6-dione hydrochloride] | 7.72
CC(C)=CCn1c(N2CCC3CNCC32)nc2c1c(=O)n(CCc1ccccc1)c(=O)n2C1CC1 (stereo not shown) [Example 21, 3-Cyclopropyl-8-(hexahydropyrrolo[3,4-b]pyrrol-1-yl)-7-(3-methylbut-2-enyl)-1-phenethyl-3,7-dihydropurine-2,6-dione hydrochloride] | 7.15
CC(C)=CCn1c(N2CCC3CNCC32)nc2c1c(=O)n(CC(=O)c1ccccc1)c(=O)n2CC(F)(F)F (stereo not shown) [Example 35, 8-(Hexahydropyrrolo[3,4-b]pyrrol-1-yl)-7-(3-methylbut-2-enyl)-1-(2-oxo-2-phenylethyl)-3-(2,2,2-trifluoroethyl)-3,7-dihydropurine-2,6-dione hydrochloride] | 7.30
CC(C)=CCn1c(N2CCC3CNCC32)nc2c1c(=O)n(CC(=O)c1ccccc1Cl)c(=O)n2C (stereo not shown) [Example 41, 1-[2-(2-Chlorophenyl)-2-oxo-ethyl]-8-(hexahydropyrrolo[3,4-b]pyrrol-1-yl)-3-methyl-7-(3-methylbut-2-enyl)-3,7-dihydropurine-2,6-dione trifluoroacetate] | 7.98
CC(C)=CCn1c(N2CCC3CNCC32)nc2c1c(=O)n(CC(=O)c1cccc(Cl)c1)c(=O)n2C (stereo not shown) [Example 42, 1-[2-(3-Chlorophenyl)-2-oxo-ethyl]-8-(hexahydropyrrolo[3,4-b]pyrrol-1-yl)-3-methyl-7-(3-methylbut-2-enyl)-3,7-dihydropurine-2,6-dione] | 8.00
Cn1c(=O)c2c(nc(N3CCC4CNCC43)n2Cc2ccccc2Cl)n(C)c1=O (stereo not shown) [Example 97, 7-(2-Chlorobenzyl)-8-(hexahydropyrrolo[3,4-b]pyrrol-1-yl)-1,3-dimethyl-3,7-dihydropurine-2,6-dione trifluoroacetate] | 7.70

Reference: patent US7888343B2, “Substituted, bicyclic 8-pyrrolidinoxanthines, and methods for their use as inhibitors of dipeptidyl peptidase” (Sanofi-A Ventis Deutschland GmbH, priority 2004, dated 2011)
